Like-named read-outs stand apart in the source and are kept apart here.
Columns and labels:
[1] = cited from earlier work; for incidence of neurotoxicity, especially serious generalized seizure activity: after Bu-based conditioning therapy
erythrocytes = test: Hemolysis studies in vitro; type: cell-based; conditions: drug concentrations of 100 μg/mL or more
Description: The hemolytic potential of the final use-formulation should also be minimal, since the terminal use formulation/infusate contain Bu and PEG as the only significant solutes to be infused, i.e. this is basically D5W with a moderate amount of PEG (40%, v/v) as its main additive. The procedure of Parthasarathy et al. was used to examine the hemolytic potential of a few selected formulations, and the LD50 values of the most optimal formulation was constructed as previously described (Parthasarathy et al., 1994). Briefly, heparinized blood was mixed with an equal volume of Alsever's solution (Alsever and Ainslie, 1941). This mixture was washed twice in PBS, and a 10% (volume per volume, v/v) erythrocyte/PBS solution was then prepared and mixed with increasing amounts of PEG (essentially the VE-acetone/PEG prototype vehicle) with or without addition of D5W and with or without Bu. The resulting mixtures were incubated for 4 hours at 37° C. […] The release of hemoglobin in the supernatant (i.e., hemolysis) was determined spectrophotometrically at a wavelength of 550 nm. Maximum lysis was measured against a reference erythrocyte solution that had been lysed by hypotonic shock. The hemolytic potential of the vehicle and the complete final use-formulation (Bu/VE-acetone/PEG/D5W) was evaluated as described (Parthasarathy et al., 1984). […]

[2] = cited from earlier work

For `CS(=O)(=O)OCCCCOS(C)(=O)=O` [Busulfan, 1,4-butanediol dimethanesulfonate], the “incidence of neurotoxicity, especially serious generalized seizure activity” value ([1]; adults) is given as ≤ 10%, the “incidence of neurotoxicity, especially serious generalized seizure activity” value ([1]; children) is given as “approximately 7%” and the “EEG abnormalities, patients” value ([1]; without overt seizure activity) is given as “up to 60%”. The Bu-dependent lysis (erythrocytes) was “barely exceeded background levels”, the “Solubility” value ([2]; Solvent: Acetone, in literature) was ~25 mg/mL and the “Solubility (mg/mL)” value ([2]; Solvent: Water (The Merck Index)) was “Negligible (The Merck Index)”.
